The inhibition is the change of the read-out against control, counted positive when it falls. What is called melting point is the temperature, or range, at which the solid turns liquid.

The text below walks through data of article PMC8344761 (Journal of Enzyme Inhibition and Medicinal Chemistry, 2021).

For data set [1], the target named is T1, A-Raf (Homo sapiens, UniProt P10398).
T1 sequence (P10398 1-606): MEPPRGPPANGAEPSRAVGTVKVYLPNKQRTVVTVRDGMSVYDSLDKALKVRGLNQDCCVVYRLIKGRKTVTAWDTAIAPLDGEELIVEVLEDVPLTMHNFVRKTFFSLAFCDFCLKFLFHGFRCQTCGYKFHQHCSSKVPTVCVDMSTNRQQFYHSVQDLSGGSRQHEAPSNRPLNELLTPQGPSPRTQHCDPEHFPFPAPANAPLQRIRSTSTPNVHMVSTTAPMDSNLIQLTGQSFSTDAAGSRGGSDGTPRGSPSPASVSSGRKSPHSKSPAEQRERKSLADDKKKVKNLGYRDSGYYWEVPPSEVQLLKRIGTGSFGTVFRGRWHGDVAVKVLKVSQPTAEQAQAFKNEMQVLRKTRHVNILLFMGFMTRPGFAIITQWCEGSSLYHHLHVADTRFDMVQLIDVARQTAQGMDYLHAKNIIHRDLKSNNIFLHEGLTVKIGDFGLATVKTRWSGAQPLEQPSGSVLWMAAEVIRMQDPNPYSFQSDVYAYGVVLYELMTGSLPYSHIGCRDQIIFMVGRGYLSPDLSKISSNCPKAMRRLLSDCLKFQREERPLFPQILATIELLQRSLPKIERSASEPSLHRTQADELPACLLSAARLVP
Put plainly: Raf kinase assay (Kinase HotSpot, Reaction Biology Corp.). The format is biochemical. Conditions: fixed concentration 1 μM; mean of two independent experiments. As for the experimental part:
Compounds were delivered into each Raf reaction, followed ∼20 min later by addition of a mixture of ATP and [γ-^33P-ATP] (specific activity approx. 500 cpm/pmol, concentration as required) to a final concentration of 10 µM. […] Then, the reaction was spotted onto a P30 filtermat, and unbound phosphate was removed by washing three times for 5 min in 75 mM phosphoric acid and once in methanol prior to drying and scintillation counting. […] IC50 values and curve fits were obtained using Prism (GraphPad Software, La Jolla, CA).

The target in data set [2] is B-Raf (V600E) (Homo sapiens, UniProt P15056, V600E). The description is as above. The format is biochemical. Conditions: fixed concentration 1 μM; mean of two independent experiments; B-Raf (V599E). As for the experimental part:
(§1) Compounds were delivered into each Raf reaction, followed ∼20 min later by addition of a mixture of ATP and [γ-^33P-ATP] (specific activity approx. 500 cpm/pmol, concentration as required) to a final concentration of 10 µM. After incubation for 40 min at 25 °C, the reaction was stopped by the addition of a 3% phosphoric acid solution. Then, the reaction was spotted onto a P30 filtermat, and unbound phosphate was removed by washing three times for 5 min in 75 mM phosphoric acid and once in methanol prior to drying and scintillation counting. […] IC50 values and curve fits were obtained using Prism (GraphPad Software, La Jolla, CA).

In data set [3] the target is C-Raf (Homo sapiens, UniProt P04049). Described as above. Conditions: fixed concentration 1 μM; mean of two independent experiments; read-out: Inhibition (%) C-Raf. The format is biochemical. As for the experimental part: as §1
In data set [4] the target is B-Raf (Homo sapiens, UniProt P15056). The description is as above. Format: biochemical. To be noted: fixed concentration 1 μM; mean of two independent experiments. As for the experimental part: as §1
Sequence of B-Raf (P15056 whole entry): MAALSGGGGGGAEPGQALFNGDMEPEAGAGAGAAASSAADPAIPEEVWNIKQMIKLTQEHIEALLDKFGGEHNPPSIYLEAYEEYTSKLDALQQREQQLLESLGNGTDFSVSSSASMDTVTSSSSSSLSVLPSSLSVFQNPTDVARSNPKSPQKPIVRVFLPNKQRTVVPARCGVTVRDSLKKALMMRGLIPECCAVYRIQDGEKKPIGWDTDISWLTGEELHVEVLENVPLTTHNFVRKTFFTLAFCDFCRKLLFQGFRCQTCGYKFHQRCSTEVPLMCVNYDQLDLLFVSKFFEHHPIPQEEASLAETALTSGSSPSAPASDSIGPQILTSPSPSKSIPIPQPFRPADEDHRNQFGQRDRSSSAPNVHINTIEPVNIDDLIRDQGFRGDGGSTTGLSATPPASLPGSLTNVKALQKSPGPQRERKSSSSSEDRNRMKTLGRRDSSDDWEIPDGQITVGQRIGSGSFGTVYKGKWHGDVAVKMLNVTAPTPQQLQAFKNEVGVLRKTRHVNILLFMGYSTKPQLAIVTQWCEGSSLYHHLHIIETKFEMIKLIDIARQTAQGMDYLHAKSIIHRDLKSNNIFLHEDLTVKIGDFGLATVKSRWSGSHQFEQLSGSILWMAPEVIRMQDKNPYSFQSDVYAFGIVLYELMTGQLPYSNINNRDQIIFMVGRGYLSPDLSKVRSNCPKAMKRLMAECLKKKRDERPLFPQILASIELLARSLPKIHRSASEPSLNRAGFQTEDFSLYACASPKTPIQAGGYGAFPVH

Sequence of C-Raf (P04049 whole entry): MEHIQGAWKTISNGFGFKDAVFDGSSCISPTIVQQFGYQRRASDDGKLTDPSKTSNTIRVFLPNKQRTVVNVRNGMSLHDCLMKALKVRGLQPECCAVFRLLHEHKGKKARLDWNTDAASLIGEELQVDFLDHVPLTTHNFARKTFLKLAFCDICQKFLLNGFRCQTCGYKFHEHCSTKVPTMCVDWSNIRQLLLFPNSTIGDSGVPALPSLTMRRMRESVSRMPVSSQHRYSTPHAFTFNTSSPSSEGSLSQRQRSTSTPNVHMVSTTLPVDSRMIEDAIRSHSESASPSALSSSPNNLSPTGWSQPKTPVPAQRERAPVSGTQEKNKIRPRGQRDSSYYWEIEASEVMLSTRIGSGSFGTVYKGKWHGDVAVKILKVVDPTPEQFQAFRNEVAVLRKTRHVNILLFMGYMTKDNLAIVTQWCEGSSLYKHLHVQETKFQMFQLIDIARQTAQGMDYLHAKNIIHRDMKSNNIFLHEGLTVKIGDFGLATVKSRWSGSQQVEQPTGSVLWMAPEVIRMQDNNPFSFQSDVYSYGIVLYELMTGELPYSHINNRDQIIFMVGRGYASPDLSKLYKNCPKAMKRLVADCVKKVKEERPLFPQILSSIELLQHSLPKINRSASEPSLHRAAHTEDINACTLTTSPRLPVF
Sequence of B-Raf (V600E) (P15056 whole entry V600E): as the sequence (P15056 whole entry) above, with V600E counted along it

For the molecule `CNC(=O)c1cc(Oc2c(C)nc(N)c(C)c2C)ccn1` [Compound 3, 4-((6-Amino-2,4,5-trimethylpyridin-3-yl)oxy)-N-methylpicolinamide], the melting point turned out to be 193 °C. In data set [1], the inhibition at 1 µM was 17.6%. Also, the inhibition at 1 µM in data set [2] worked out at 9.4%. Moreover, in data set [3], the inhibition at 1 µM came out at 0%. The inhibition at 1 µM in data set [4] is -15.4%.
In the same order, the values of `CNC(=O)c1cc(Oc2c(C)nc(NC(=O)Nc3ccc(Cl)cc3)c(C)c2C)ccn1` [Compound 5, 4-((6–(3-(4-Chlorophenyl)ureido)-2,4,5-trimethylpyridin-3-yl)oxy)-N-methylpicolinamide] are 248 °C, 70.2%, 69.4%, 83.1% and 63%.
For `CNC(=O)c1cc(Oc2c(C)nc(NC(=O)Nc3ccccc3)c(C)c2C)ccn1` [Compound 7, N-Methyl-4-((2,4,5-trimethyl-6-(3-phenylureido)pyridin-3-yl)oxy)picolinamide], the melting point amounted to 229 °C. Besides, the inhibition at 1 µM in data set [1] came out at 49.3%. For the same molecule, the inhibition at 1 µM in data set [2] came to 48%. Also, in data set [3], the inhibition at 1 µM turned out to be 46.4%. Besides, in data set [4], the inhibition at 1 µM was 24.8%.
For `CNC(=O)c1cc(Oc2c(C)nc(NC(=O)Nc3ccc(F)cc3)c(C)c2C)ccn1` [Compound 8, 4-((6-(3-(4-Fluorophenyl)ureido)-2,4,5-trimethylpyridin-3-yl)oxy)-N-methylpicolinamide] the same measures were 253 °C, 78.4%, 77.9%, 78.2% and 61.5%.
As to `CNC(=O)c1cc(Oc2c(C)nc(NC(=O)Nc3ccc(Br)cc3)c(C)c2C)ccn1` [Compound 9, 4-((6–(3-(4-Bromophenyl)ureido)-2,4,5-trimethylpyridin-3-yl)oxy)-N-methylpicolinamide], the melting point came out at 268 °C. The inhibition at 1 µM in data set [1] was 49.9%. For the same molecule, in data set [2], the inhibition at 1 µM came to 58.9%. Besides, in data set [3], the inhibition at 1 µM stood at 74.6%. Further, in data set [4], the inhibition at 1 µM is 40.8%.
In the same order, the values of `CNC(=O)c1cc(Oc2c(C)nc(NC(=O)Nc3ccc([N+](=O)[O-])cc3)c(C)c2C)ccn1` [Compound 10, N-Methyl-4-((2,4,5-trimethyl-6-(3-(4-nitrophenyl)ureido)pyridin-3-yl)oxy)picolinamide] are 262 °C, 61.5%, 74.7%, 83.1% and 60.4%.
For `CNC(=O)c1cc(Oc2c(C)nc(NC(=O)Nc3ccc(C(F)(F)F)cc3)c(C)c2C)ccn1` [Compound 11, N-Methyl-4-((2,4,5-trimethyl-6-(3-(4-(trifluoromethyl)phenyl)ureido)pyridin-3-yl)oxy)picolinamide] the same measures were 254 °C, 66.3%, 71.9%, 90.4% and 66.8%.
For `CNC(=O)c1cc(Oc2c(C)nc(NC(=O)Nc3ccc(OC(F)(F)F)cc3)c(C)c2C)ccn1` [Compound 12, N-Methyl-4-((2,4,5-trimethyl-6-(3-(4-(trifluoromethoxy)phenyl)ureido)pyridin-3-yl)oxy)picolinamide] the same measures were 185 °C, 12.4%, 22.2%, 37.5% and 6.6%.
`CNC(=O)c1cc(Oc2c(C)nc(NC(=O)Nc3ccc(OC)cc3)c(C)c2C)ccn1` [Compound 13, 4-((6-(3-(4-Methoxyphenyl)ureido)-2,4,5-trimethylpyridin-3-yl)oxy)-N-methylpicolinamide] came in with a melting point of 258 °C. In addition, the inhibition at 1 µM in data set [1] worked out at 14.7%. For the same molecule, the inhibition at 1 µM in data set [2] worked out at 33.4%. Moreover, the inhibition at 1 µM in data set [3] worked out at 55.9%. In addition, the inhibition at 1 µM in data set [4] came out at 5.1%.
In the same order, the values of `CNC(=O)c1cc(Oc2c(C)nc(NC(=O)Nc3ccc(C)cc3)c(C)c2C)ccn1` [Compound 14, N-Methyl-4-((2,4,5-trimethyl-6-(3-(p-tolyl)ureido)pyridin-3-yl)oxy)picolinamide] are 247 °C, 51%, 62.2%, 73.6% and 44.5%.
`CNC(=O)c1cc(Oc2c(C)nc(NC(=O)Nc3ccc(C(C)C)cc3)c(C)c2C)ccn1` [Compound 15, 4-((6-(3-(4-Isopropylphenyl)ureido)-2,4,5-trimethylpyridin-3-yl)oxy)-N-methylpicolinamide]: the melting point worked out at 188 °C. The inhibition at 1 µM in data set [1] was 33.6%. The inhibition at 1 µM in data set [2] was 39%. Also, the inhibition at 1 µM in data set [3] came to 76.1%. In data set [4], the inhibition at 1 µM was 43.2%.
For `CNC(=O)c1cc(Oc2c(C)nc(NC(=O)Nc3c(C)cccc3C(C)(C)C)c(C)c2C)ccn1` [Compound 16, 4-((6-(3-(2-(Tert-Butyl)-6-methylphenyl)ureido)-2,4,5-trimethylpyridin-3-yl)oxy)-N-methylpicolinamide] the same measures were 206 °C, 8.6%, 7.1%, -6.4% and -7.1%.
For `CNC(=O)c1cc(Oc2c(C)nc(NC(=O)Nc3cccc4ccccc34)c(C)c2C)ccn1` [Compound 17, N-Methyl-4-((2,4,5-trimethyl-6-(3-(naphthalen-1-yl)ureido)pyridin-3-yl)oxy)picolinamide] the same measures were 266 °C, 10.2%, 10.1%, 7.1% and -6.8%.
`CNC(=O)c1cc(Oc2c(C)nc(NC(=O)NCc3ccccc3)c(C)c2C)ccn1` [Compound 18, 4-((6-(3-Benzylureido)-2,4,5-trimethylpyridin-3-yl)oxy)-N-methylpicolinamide] showed a melting point of 195 °C. In addition, the inhibition at 1 µM in data set [1] was found to be 7.8%. Moreover, in data set [2], the inhibition at 1 µM is 13.3%. In data set [4], the inhibition at 1 µM is -14.5%.
`CCCNC(=O)Nc1nc(C)c(Oc2ccnc(C(=O)NC)c2)c(C)c1C` [Compound 19, N-Methyl-4-((2,4,5-trimethyl-6-(3-propylureido)pyridin-3-yl)oxy)picolinamide] yielded a melting point of 207 °C. Also, in data set [1], the inhibition at 1 µM was -5.1%. Besides, the inhibition at 1 µM in data set [3] is 1.7%. In addition, the inhibition at 1 µM in data set [4] was -9.2%.
In the case of `CNC(=O)c1cc(Oc2c(C)nc(NC(=O)NC3CC3)c(C)c2C)ccn1` [Compound 20, 4-((6-(3-Cyclopropylureido)-2,4,5-trimethylpyridin-3-yl)oxy)-N-methylpicolinamide], the melting point worked out at 192 °C. Moreover, the inhibition at 1 µM in data set [1] was 16.4%. For the same molecule, the inhibition at 1 µM in data set [2] turned out to be 8.9%. The inhibition at 1 µM in data set [3] was -0.8%. For the same molecule, the inhibition at 1 µM in data set [4] is -10%.
As to `CNC(=O)c1cc(Oc2c(C)nc(NC(=O)NS(=O)(=O)c3ccc(C)cc3)c(C)c2C)ccn1` [Compound 22, N-Methyl-4-((2,4,5-trimethyl-6-(3-tosylureido)pyridin-3-yl)oxy)picolinamide], the melting point was found to be 187 °C. For the same molecule, in data set [1], the inhibition at 1 µM was determined as 9.4%. For the same molecule, the inhibition at 1 µM in data set [2] came to 2.6%. Also, the inhibition at 1 µM in data set [3] is 5.7%.
The molecule `Cc1nc(NC(=O)Nc2ccc(Cl)c(C(F)(F)F)c2)c(C)c(C)c1O` [Compound 25, 1-(4-Chloro-3-(trifluoromethyl)phenyl)-3-(5-hydroxy-3,4,6-trimethylpyridin-2-yl)urea] registered a melting point of 242 °C. For the same molecule, in data set [1], the inhibition at 1 µM amounted to 7.9%. In addition, the inhibition at 1 µM in data set [2] came to 8.7%. Further, in data set [3], the inhibition at 1 µM was -7.7%.
